Our source for the GI50 values is patent US9024018B2, “3-substituted-8-substituted-3H-imidazo[5,1-d][1,2,3,5]tetrazin-4-one compounds and their use” (Pharminox Limited, priority 2009, dated 2015).

A value given as a limit tells only on which side of the number the result lay.

Format in all cases: cell-based
The subject of assay [1] is SNB19V. The assay can be described thus: MTT assay for 7-day toxicity, SNB19V glioma cells (vector control, MGMT-). The note with it: Glioma cell, 168 h, 7 day MTT assay, glioma line SNB19V. As to the method: (§1) The cell culture techniques were carried out in a Class II microbiological safety cabinet which was swabbed with 70% IMS in distilled water before each use. Glioma cells were routinely cultured in Costar tissue culture flasks in RPMI 1640 liquid medium (containing 0.3 g/L L-glutamine and 2 g/L sodium bicarbonate) supplemented with 10% heat inactivated FBS (55-59° C.) for 1 hour to denature complement proteins which would otherwise evoke a cellular immune response resulting in cell lysis, 1% non-essential amino acids, 50 μg/mL gentamicin and 400 μg/mL G418 (vector selection reagent). Colorectal and melanoma cells were maintained in RPMI 1640 supplemented with 10% FBS. MRC-5 cells were cultured in EMEM+10% FBS, 1% pen/strep, 1% non-essential amino acids, 1% HEPES (1M) and 1% sodium bicarbonate.
(§2) Cells were grown at 37° C. in a humidified incubator in an atmosphere comprising 95% air/5% CO2. Cells were sub-cultured when growth exceeded approximately 80% confluence, normally twice weekly. The medium was aspirated from the flask and approximately 0.8 mL trypsin-EDTA 1× solution added. The cells were re-incubated at 37° C. until they had visibly detached from the flask. The cells were re-suspended in 5 mL medium and 0.5-1 mL was transferred to a new flask (25 cm^2) with 7 mL culture medium. The cells were further incubated at 37° C. To minimize phenotypic drift, cells were disposed of once they had been subcultured 30 times. New batches of cells were thawed rapidly in 37° C. water bath once taken from liquid nitrogen storage and re-suspended in 10 mL of culture medium in a 25 cm^2 flask. Cells were passaged twice to allow normal growth to resume prior to use in experiments.
(§3) Most test compounds, including temozolomide, were prepared as 100 mM stock solutions in DMSO and stored at −20° C. for not more than 6 months.
(§4) MTT Assay for 7-Day Toxicity Assay
(§5) This assay was first described in Mosmann, T., 1983, “Rapid colorimetric assay for cellular growth and survival: Application to proliferation and cytotoxicity assays”, Journal of Immunological Methods, Vol. 65, Nos. 1-2, pp. 55-63.
(§6) Glioma cell lines, SNB19 and U373, both stably transfected with MGMT (i.e., SNB19M and U373M) or their respective vector controls (i.e., SNB19V and U373V); colorectal carcinoma cell lines, HCT116, HT29, and DLD1; melanoma cell line, SKMEL-28; breast cell line, MCF-7; and normal human fetal lung fibroblast cell line, MRC-5; were used at 60-80% confluence, during the logarithmic phase of growth.
(§7) Following harvesting with trypsin/EDTA, cells in suspension were gently syringed through a 23 gauge needle to obtain a near-single cell suspension. Cells were then seeded into 96-well plates at the desired density in 180 μL culture medium if only one test compound was to be added, or in 160 μL if two test compounds were to be added in combination. Cells were allowed to attach overnight by incubation at 37° C. in 95% air/5% CO2. For the 7 day assay, the cell seeding densities for the different cell lines were as follows: SNB19V, SNB19M: 650 cells/well; U373V, U373M: 650 cells/well; SNB19VR, U373VR: 650 cells/well; HCT116, DLD-1, SKMEL-28, MRC-5, MCF-7: 400 cells/well.
(§8) The two peripheral lanes of each plate were used as blank wells (cell free) and filled with 200 μL of medium in order to minimise medium evaporation from the plate. A separate time zero (T0) plate was set up alongside other plates. Serial dilutions in tissue culture medium of a 100 mM stock of test compound were prepared immediately before each assay to ten times the final concentrations required. 20 μL was added to each well (200 μL total media per well) to achieve final concentrations of 0.5 μM, 1 μM, 5 μM, 10 μM, 50 μM, 100 μM, 500 μM, and 1000 μM. A minimum of four wells received the same test compound concentration. To control wells, including those in the T0 plate, 20 μL of medium was added. […]

The subject of assay [2] is U373V. The assay can be described thus: MTT assay for 7-day toxicity, U373V glioma cells (vector control, MGMT-). The note with it: Glioma cell, 168 h, 7 day MTT assay, glioma line U373V. The protocol: as §1, §2, §3, §4, §5, §6, §7, §8
In assay [3] the test system is U373M. The assay can be described thus: MTT assay for 7-day toxicity, U373M glioma cells (stably transfected with MGMT, MGMT+). Conditions: Glioma cell, 168 h, 7 day MTT assay, glioma line U373M. The protocol:
as §1, §2, §3, §4, §5, §6, §7, §8

Assay [4] concerns SNB19M. The assay can be described thus: MTT assay for 7-day toxicity, SNB19M glioma cells (stably transfected with MGMT, MGMT+). The note with it: Glioma cell, 168 h, 7 day MTT assay, glioma line SNB19M. As to the method: as §1, §2, §3, §4, §5, §6, §7, §8

For the compound `COCn1nnc2c(C(=O)Nc3ccccc3)ncn2c1=O` [LL-002, 3-(Methoxymethyl)-4-oxo-N-phenyl-3,4-dihydroimidazo[5,1-d][1,2,3,5]tetrazine-8-carboxamide], the concentration for 50% growth inhibition (GI50) in assay [1] was determined as 55.3 µM; in assay [2], 36.3 µM; in assay [3], 52.3 µM; in assay [4] it was 43.8 µM.
On to `COCn1nnc2c(/C=C/c3ccc(C#N)cc3)ncn2c1=O` [MM-001, (E)-4-(2-(3-(Methoxymethyl)-4-oxo-3,4-dihydroimidazo[5,1-d][1,2,3,5]tetrazin-8-yl)vinyl)benzonitrile], for which the GI50 in assay [1] amounted to 9.1 µM; in assay [2], 7.7 µM; in assay [3] it was 8.8 µM; in assay [4], 8.9 µM.
On the same counts, the results for `COCn1nnc2c(/C=C/c3cccs3)ncn2c1=O` [MM-004, (E)-3-(Methoxymethyl)-8-(2-(thiophen-2-yl)vinyl)imidazo[5,1-d][1,2,3,5]tetrazin-4(3H)-one] are 4.5 µM, 4.4 µM, 6.5 µM and 5.1 µM.
As for `C#CCn1nnc2c(C(=N)NCC(=O)OC)ncn2c1=O` [SS-001, Methyl-2-(4-oxo-3-(prop-2-ynyl)-3,4-dihydroimidazo[5,1-d][1,2,3,5]tetrazine-8-carboximidamido)acetate hydroiodide], the GI50 in assay [1] was 59 µM; in assay [2] it was 51.2 µM; in assay [3], 55.1 µM; in assay [4], 52.7 µM.
As to `Cn1nnc2c(C(N)=O)ncn2c1=O` [TMZ, temozolomide, reference compound], the GI50 in assay [1] came out at 45.6 µM; in assay [2], 72.9 µM; in assay [3] it was 395 µM; in assay [4] it was 526 µM.
In the case of `C#CCn1nnc2c(C(N)=S)ncn2c1=O` [TT-001, 4-oxo-3-(prop-2-ynyl)-3,4-dihydroimidazo[5,1-d][1,2,3,5]tetrazine-8-carbothioamide], the GI50 in assay [1] came to 63.2 µM; in assay [2], 42.3 µM; in assay [3], 53.4 µM; in assay [4] it was 54.7 µM.
Take `Cn1nnc2c(-c3nc(-c4ccc(F)cc4)cs3)ncn2c1=O` [WW-001, 8-(4-(4-Fluorophenyl)thiazol-2-yl)-3-methylimidazo[5,1-d][1,2,3,5]tetrazin-4(3H)-one]: the GI50 is under 45 µM in assay [1], under 75 µM in assay [2], under 60 µM in assay [3] and under 70 µM in assay [4].
On to `Cn1nnc2c(-c3nc(-c4ccccc4)cs3)ncn2c1=O` [WW-002], for which the GI50 in assay [1] was under 45 µM; in assay [2] it was under 75 µM; in assay [3], under 60 µM; in assay [4], under 70 µM.
The corresponding values for `CCc1csc(-c2ncn3c(=O)n(C)nnc23)n1` [WW-003, 8-(4-Ethylthiazol-2-yl)-3-methylimidazo[5,1-d][1,2,3,5]tetrazin-4(3H)-one] are under 45 µM, under 75 µM, under 60 µM and under 70 µM.
With `C#CCn1nnc2c(-c3nc(-c4ccccc4)cs3)ncn2c1=O` [WW-004, 8-(4-phenylthiazol-2-yl)-3-(prop-2-ynyl)imidazo[5,1-d][1,2,3,5]tetrazin-4(3H)-one], the GI50 in assay [1] was under 45 µM; in assay [2] it was under 75 µM; in assay [3], under 60 µM; in assay [4], under 70 µM.
The corresponding values for `C#CCNC(=O)c1csc(-c2ncn3c(=O)n(C)nnc23)n1` [WW-005, 2-(3-Methyl-4-oxo-3,4-dihydroimidazo[5,1-d][1,2,3,5]tetrazin-8-yl)-N-(prop-2-ynyl)thiazole-4-carboxamide] are under 45 µM, under 75 µM, under 60 µM and under 70 µM.
Consider `Cn1nnc2c(-c3nc(C#N)cs3)ncn2c1=O` [WW-006, 2-(3-Methyl-4-oxo-3,4-dihydroimidazo[5,1-d][1,2,3,5]tetrazin-8-yl)thiazole-4-carbonitrile], for which the GI50 in assay [1] was under 45 µM; in assay [2] it was under 75 µM; in assay [3], under 60 µM.
Take `Cn1nnc2c(-c3nc(C(N)=O)cs3)ncn2c1=O` [WW-007, 2-(3-Methyl-4-oxo-3,4-dihydroimidazo[5,1-d][1,2,3, 5]tetrazin-8-yl)thiazole-4-carboxamide]: the GI50 was under 45 µM in assay [1], under 75 µM in assay [2], under 60 µM in assay [3] and under 70 µM in assay [4].
Take `Cn1nnc2c(-c3nc(C(=O)NC4CC4)cs3)ncn2c1=O` [WW-008, N-Cyclopropyl-2-(3-methyl-4-oxo-3,4-dihydroimidazo[5,1-d][1,2,3, 5]tetrazin-8-yl)thiazole-4-carboxamide]: the GI50 in assay [1] is under 45 µM; in assay [2], under 75 µM; in assay [3] it was under 60 µM; in assay [4] it was under 70 µM.
On to `Cn1nnc2c(-c3nc(C(=O)NC(C)(C)C)cs3)ncn2c1=O` [WW-009, N-tert-Butyl-2-(3-methyl-4-oxo-3,4-dihydroimidazo[5,1-d][1,2,3,5]tetrazin-8-yl)thiazole-4-carboxamide], for which the values for the GI50 in assay [1], in assay [2] and in assay [3] were under 45 µM, under 75 µM and under 60 µM, respectively.
On to `C#CCn1nnc2c(-c3nc(-c4ccc(Br)cc4)cs3)ncn2c1=O` [WW-021], for which the results for the 50% growth inhibitory concentration (GI50) in assay [2], in assay [3] and in assay [4] were under 75 µM, under 60 µM and under 70 µM, respectively.
In the case of `CSCn1nnc2c(-c3nc(-c4ccccc4)cs3)ncn2c1=O` [WW-030, 3-(Methylthiomethyl)-8-(4-phenylthiazol-2-yl)imidazo[5,1-d][1,2,3,5]tetrazin-4(3H)-one], the GI50 is under 75 µM in assay [2], under 60 µM in assay [3] and under 70 µM in assay [4].
In the case of `COCn1nnc2c(-c3nc(-c4ccc5c(c4)OCO5)cs3)ncn2c1=O` [WW-032], the figures for the GI50 in assay [2], in assay [3] and in assay [4] were under 75 µM, under 60 µM and under 70 µM, respectively.
Turning to `CSCn1nnc2c(-c3nc(-c4cccs4)cs3)ncn2c1=O` [WW-034, 3-(methylthiomethyl)-8-(4-(thiophen-2-yl)thiazol-2-yl)imidazo[5,1-d][1,2,3,5]tetrazin-4(3H)-one], the values for the GI50 in assay [2], in assay [3] and in assay [4] were under 75 µM, under 60 µM and under 70 µM, respectively.
Take `CSCn1nnc2c(-c3nc(-c4ccsc4)cs3)ncn2c1=O` [WW-035, 3-(methylthiomethyl)-8-(4-(thiophen-3-yl)thiazol-2-1/1)imidazo[5,1-d][1,2,3,5]tetrazin-4(3H)-one]: the results for the GI50 in assay [2], in assay [3] and in assay [4] were under 75 µM, under 60 µM and under 70 µM, respectively.
`COCn1nnc2c(-c3ncc(-c4ccc(Br)cc4)o3)ncn2c1=O` [WW-039]: the GI50 was under 75 µM in assay [2], under 60 µM in assay [3] and under 70 µM in assay [4].
Consider `C#CCn1nnc2c(-c3ncc(-c4ccccc4)o3)ncn2c1=O` [WW-040], for which the figures for the 50% growth inhibitory concentration (GI50) in assay [2], in assay [3] and in assay [4] were under 75 µM, under 60 µM and under 70 µM, respectively.
In the case of `COCn1nnc2c(-c3nnc(NCc4ccccc4)o3)ncn2c1=O` [WW-046, 8-(5-(Benzylamino)-1,3,4-oxadiazol-2-yl)-3-(methoxymethyl)imidazo[5,1-d][1,2,3,5]tetrazin-4(3H)-one], the GI50 in assay [2] was under 75 µM; in assay [3], under 60 µM; in assay [4] it was under 70 µM.
